ChEMBL document CHEMBL5120888, “Voratins A-C: Pyridinium Alkaloids from the Marine Dinoflagellate Effrenium voratum with Inhibitory Effects on Biomarkers for Benign Prostatic Hyperplasia” (J Nat Prod, 2022)
Active and inactive are the calls of the source. The calls are words filed in the database; no cut-off is given here.

Legend:
LNCaP [1] = experiment: Inhibition of testosterone propionate induced PSA expression in human LNCaP cells pretreated with TP for 1 hr followed by compound addition at 1 to 10 uM by Western blotting analysis; assay type: functional, cell-based; details: dose 1-10 µM
RWPE-1 [2] = experiment: Cytotoxicity against human RWPE-1 cells at 0.1 to 1 uM incubated for 24 hrs by MTT assay; assay type: toxicity, cell-based; details: rwpe-1, 24 h, dose 0.1-1 µM
LNCaP [3] = experiment: Inhibition of testosterone propionate induced AR expression in human LNCaP cells pretreated with TP for 1 hr followed by compound addition at 1 to 10 uM by Western blotting analysis; assay type: functional, cell-based; details: dose 1-10 µM
RWPE-1 [4] = experiment: Inhibition of testosterone propionate induced PCNA expression in human RWPE-1 cells pretreated with TP for 1 hr followed by compound addition at 1 to 10 uM by Western blotting analysis; assay type: functional, cell-based; details: dose 1-10 µM
[5] = Inhibition of testosterone propionate induced PSA expression in human RWPE-1 cells pretreated with TP for 1 hr followed by compound addition at 1 to 10 uM by Western blotting analysis; assay type: functional; set-up: scale not given: the % may be the effect or the level left; details: dose 1-10 µM
[6] = Inhibition of testosterone propionate induced 5AR2 expression in human LNCaP cells pretreated with TP for 1 hr followed by compound addition at 10 uM by Western blotting analysis; assay type: functional
[7] = Inhibition of testosterone propionate induced PSA expression in human LNCaP cells pretreated with TP for 1 hr followed by compound addition at 10 uM by Western blotting analysis; assay type: functional
LNCaP [8] = experiment: Suppression of testosterone propionate induced PSA expression in human LNCaP cells pretreated with TP for 1 hr followed by compound addition at 10 uM by Western blotting analysis; assay type: functional, cell-based
LNCaP [9] = experiment: Suppression of testosterone propionate induced AR expression in human LNCaP cells pretreated with TP for 1 hr followed by compound addition at 10 uM by Western blotting analysis; assay type: functional, cell-based
LNCaP [10] = experiment: Suppression of testosterone propionate induced 5AR2 expression in human LNCaP cells pretreated with TP for 1 hr followed by compound addition at 10 uM by Western blotting analysis; assay type: functional, cell-based

SMILES	inhibition (LNCaP [1])	Activity (RWPE-1 [2])	inhibition (LNCaP [3])	inhibition (RWPE-1 [4])	Activity [5] [%]	inhibition at 10 µM [6] [%]	inhibition at 10 µM [7] [%]	Activity (LNCaP [8])	Activity (LNCaP [9])	Activity (LNCaP [10])
C=C1C[C@H](C(=O)[O-])O[C@@]2(C1)C[C@@H](C)C[C@H]([C@@H](O)c1cccc3[n+]1CC[C@H]3C)O2	Active	Non-Toxic	Active	–	–	–	–	–	–	–
C[C@@H]1C[C@H]([C@@H](O)c2cccc3[n+]2CC[C@@H]3C)O[C@@]2(CC[C@H](C(=O)[O-])O2)C1	Active	Non-Toxic	Active	Active	65	61	61	–	–	–
C=C1C[C@H](C(=O)[O-])O[C@@]2(C1)C[C@@H](C)C[C@H]([C@@H](O)c1cccc3[n+]1CC[C@@H]3C)O2	–	Non-Toxic	Active	–	–	53	53	–	–	–
CC(C)(C)NC(=O)[C@H]1CC[C@H]2[C@@H]3CC[C@H]4NC(=O)C=C[C@]4(C)[C@H]3CC[C@]12C	–	–	–	–	–	–	–	Active	Active	Active
